In patent publication US20150335558A1, “NERVE GROWTH INHIBITOR, CUTANEOUS-SENSORY-IRRITATION INHIBITOR, AND MARKER FOR CUTANEOUS-SENSORY-IRRITATION DETECTION” (HOYU CO., LTD., priority 2012, published 2015):

Assays:
Type in all cases: in vivo
[1] = system: histamine in mouse epidermis and dermis; experiment: Amount of histamine in skin of mast cell deficient and normal control mice after SDS (Sample Experiment 1-2); settings: Day 4, both mast cell deficient and normal control mice, SDS applied group vs solvent control
Description: Meanwhile, skin was collected from each of the mast cell deficient mice and normal control mice in the 10% SDS aqueous solution application group mentioned above at Day 4 while the mice were under anesthesia after perfusion with a phosphate buffer solution (PBS) using the cardiac blood circulation system (punched out with a biopsy punch in a circular shape of a diameter of 18 mm). The amounts of histamine in the collected skins were measured. In other words, each collected skin was immersed in PBS of 60° C. for 30 secs., then separated into the epidermis and the dermis. Subsequently, the amounts of histamine in the epidermis and the dermis were measured using the measurement kit (histamine enzyme immunoassay kit (Immunotech, Marseilles, France)). To measure the amount of histamine, tissues of both the epidermis and the dermis were pulverized to create tissue suspensions, which were subjected to centrifugation, then supernatants were collected to measure the amounts of histamine in the supernatants.

[2] = system: histamine in mouse epidermis and dermis; experiment: Amount of histamine in ICR mouse skin after SDS (Sample Experiment 1-3); settings: ICR mice, Day 4, 10% SDS application group vs solvent control
Description: The present Sample Experiment was conducted using ICR mice, and SDS was used as a stimulating substance. After SDS was applied, the amount of histamine in the skin of each mouse was assessed, and so was the HDC expression amount in the skin of each mouse. The same ICR mice as used in Sample Experiment 1-1 was used. Treatments of the ICR mice, such as preliminary rearing, and the shearing/depilating of the rotal back, were performed similarly to Sample Experiment 1-1. A 10% aqueous solution obtained by dissolving SDS in distilled water was applied to the mouse rostal back as a stimulating substance against the skin similarly to Sample Experiment 1-1. Distilled water was applied to the solvent control group (Vehicle). Skin was collected by operations similar to that mentioned in “Amount of Histamine in Mouse Skin” in Sample Experiment 1-2 from each ICR mouse of the 10% SDS aqueous solution application group and the solvent control group mentioned above after 4 days had passed from application (Day 4). The collected skins were separated into the epidermis and the dermis, and the amounts of histamine in those skins were measured.

[3] = system: L-histidine decarboxylase (HDC); experiment: HDC expression amount in mouse epidermis and dermis by Western blot (Sample Experiment 1-3); settings: ICR mice, Day 4, 10% SDS vs solvent control
From the text: Concerning the epidermis and dermis obtained by the method in the “Amount of Histamine in Mouse Skin” section above, the HDC in the epidermis and the HDC in the dermis were quantitatively determined by the Western blot analysis. The protein in the epidermis and the dermis was extracted using the Mammalian cell lysis kit (Sigma, Tokyo, Japan).
The protein extract was subjected to centrifugation and the obtained supernatant was used as a protein solution. The amount of protein in the protein solution was quantitatively determined using a protein quantification kit, 2-D Quant Kit of GE Health Care Bioscience Co. Then, a sample buffer containing a reducing agent, 2-mercaptoethanol, was added to a certain amount of protein, and the mixture was reacted at 95° C. to cut the disulfide bond in the protein structure. This enables electrophoresis that reflects the molecular amount.
The protein solution processed in the above manner was subjected to the Western blot analysis. In other words, electrophoresis was performed according to the following electrophoresis condition. As a result, protein was separated according to the molecular amount. Then, the separated protein was transcribed to the membrane according to the following transcription condition.
Applied gel: Nupage 4%-12% Bis-tris gels (Invitrogen Corp., Carlsbad, Calif.) Electrophoresis buffer: 3-morpholinopropanesulfonic acid (MOPS) buffer Current/electrophoresis time: 200V, 100 mins.
Applied membrane: Polyvinylidene Fluoride (PVDF) membrane Electrophoresis buffer: NuPAGE transcription buffer (Invitrogen Corp., Carlsbad, Calif.) pos Current/electrophoresis time: 30V, 60 mins.
The membrane was cut at about 50 kDa after transcription. Then, blocking was performed with a 1% skim milk aqueous solution. […] After processing the secondary antibody and then washing each membrane with PBS-T (a solution comprising PBS and 0.1% Tween20), a band was detected with a fluorescent scanner. Then, the detected band was determined by quantification using an image analysis software Scion Image (Scion. Corp., Frederick, Md., USA). The Scion Image is a software that selects the band of the protein to be quantified, reads the band area and the density of the color tone, and detects the numerical value corresponding to the protein expression amount based on those information.
HDC and β-actin (component of the cytoskeleton) are detected from the above processing. […]

## CCCCCCCCCCCCOS(=O)(=O)[O-].[Na+] [SDS, sodium dodecyl sulfate]
[1]
  amount of histamine in mouse dermis: barely increased
  amount of histamine in mouse epidermis: significantly high
[2]
  amount of histamine in mouse dermis: does not differ significantly
  amount of histamine in mouse epidermis: significantly higher
[3]
  53 kDa-HDC (active) expression amount, dermis: did not change
  53 kDa-HDC (active) expression amount, epidermis: increased
  74 kDa-HDC (inactive) expression amount, dermis: increased significantly
  74 kDa-HDC (inactive) expression amount, epidermis: increased
